Patent publication EP1021444B1, “3-CARBOXAMIDE DERIVATIVES OF 5H-PYRROLO[2,1-c][1,4]-BENZODIAZEPINES” (Wyeth, priority 1996, dated 1998)
Where a name gives a salt, the structure may show the parent alone. Read-outs that look alike come from different tables or passages of the source.

Columns and labels:
[1] = test system: Endogenous Arginine Vasopressin Antidiuretic (V2) Response; experiment: Antagonism of endogenous arginine vasopressin antidiuretic (V2) response in conscious rats (urine volume); type: in vivo, Sprague-Dawley rats; conditions: 10 mg/kg rat p.o.; urine collected for four hours after dosing; no water or food during test
Excerpt: Effects on the Antagonism of Endogenous Arginine Vasopressin Antidiuretic (V2) Response in Conscious Rats with Free Access to Water Drinking Before but not During the Experiment:
Male or female normotensive Sprague-Dawley rats (Charles River Laboratories, Inc., Kingston, NY) of 400-450 g body weight were supplied with Laboratory Rodent Feed #5001 (PMI Feeds, Inc., Richmond, IN) and water ad libitum. On the day of test, rats were placed individually into metabolic cages equipped with stainless steel screens (to separate the feces from the urine) and funnels for collection of urine. Vehicle or reference agent was given at various oral doses. During the test, rats were not provided with water or food. Urine was collected for four hours after dosing of the test compound. At the end of four hours, urine volume was measured. Urinary osmolality was determined using a Fiske One-Ten Osmometer (Fiske Associates, Norwood, MA, 02062). or an Advanced CRYOMATIC Osmometer, Model 3C2 (Advanced Instruments, Norwood, MA). Determinations of Na^+, K^+ and Cl^- ion were carried out using ion specific electrodes in a Beckman SYNCHRON EL-ISE Electrolyte System analyzer. In the following results, increased urine volume and decreased osmolality relative to AVP-control indicates activity.

[2] = target: T1, Human V2 Vasopressin Receptor (Homo sapiens, UniProt P30518); experiment: Binding to membranes of mouse fibroblast cell line (LV-2) transfected with the cDNA expressing the human V2 vasopressin receptor
T1 construct: expressed in transfected cells; host or cells: mouse fibroblast cell line LV-2 (membrane preparation)
T1 sequence (P30518 whole entry): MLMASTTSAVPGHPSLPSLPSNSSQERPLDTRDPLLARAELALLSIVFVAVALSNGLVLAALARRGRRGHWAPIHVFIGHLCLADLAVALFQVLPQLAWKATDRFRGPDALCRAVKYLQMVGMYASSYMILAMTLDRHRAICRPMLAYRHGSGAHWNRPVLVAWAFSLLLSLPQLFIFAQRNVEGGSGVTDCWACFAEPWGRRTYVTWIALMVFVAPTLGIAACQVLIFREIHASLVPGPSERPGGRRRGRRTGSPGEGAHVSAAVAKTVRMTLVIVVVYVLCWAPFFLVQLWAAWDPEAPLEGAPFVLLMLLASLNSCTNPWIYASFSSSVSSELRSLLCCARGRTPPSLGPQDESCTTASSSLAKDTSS
Experimental: Binding to Membranes of Mouse Fibroblast Cell Line (LV-2) Transfected with the cDNA Expressing the Human V2 Vasopressin Receptor
Flasks of 175 ml capacity, containing attached cells grown to confluence, are cleared of culture medium by aspiration. The flasks containing the attached cells are rinsed with 2x5 ml of phosphate buffered saline (PBS) and the liquid aspirated off each time. Finally, 5 ml of an enzyme free dissociation Hank's based solution (Specialty Media, Inc., Lafayette, NJ) is added and the flasks are left undisturbed for 2 min. The content of all flasks is poured into a centrifuge tube and the cells pelleted at 300 x g for 15 min. […] The homogenate is centrifuged at 1500 x g for 10 min to remove ghost membranes. The supernatant fluid is centrifuged at 100,000 x g for 60 min to pellet the receptor protein. Upon completion, the pellet is resuspended in a small volume of 50.0 mM Tris.HCl buffer, pH 7.4. The protein content is determined by the Lowry method and the receptor membranes are suspended in 50.0 mM Tris.HCl buffer containing 0.1 mM phenylmethylsulfonylfluoride (PMSF) and 0.2% bovine serum albumin (BSA) to give 2.5 mg receptor protein per ml of suspension.
For binding experiments, the following is added in ml volume to wells of a 96 well format of a microtiter plate: 100.0 ml of 100.0 mM Tris.HCl buffer containing 0.2% heat inactivated BSA, 10.0 mM MgCl2 and a mixture of protease inhibitors: leupeptin, 1.0 mg %; aprotinin, 1.0 mg %; 1,10-phenanthroline, 2.0 mg %; trypsin inhibitor, 10.0 mg % and 0.1 mM PMSF, 20.0 ml of [^3H] Arginine^8, vasopressin (S.A. 75.0 Ci/mmole) at 0.8 nM and the reaction initiated by the addition of 80.0 ml of tissue membranes (200.0 mg tissue protein). The plates are left undisturbed on the bench top for 120 min to reach equilibrium. Non specific binding is assessed in the presence of 1.0 mM of unlabeled ligand, added in 20 ml volume. For test compounds, these are solubilized in 50% dimethylsulfoxide (DMSO) and added in 20.0 ml volume to a final incubation volume of […]. Upon completion of binding, the content of each well is filtered off, using a Brandel® cell Harvester (Gaithersburg, MD). The radioactivity trapped on the filter disk by the ligand-receptor complex is assessed by liquid scintillation counting in a Packard LS Counter, with an efficiency of 65% for tritium. The data are analyzed for IC50 values by the LUNDON-2 program for competition (LUNDON SOFTWARE, OH).

[3] = read-out: Vasopressin Human V2 Receptor Binding

IC50 [2, 3] [nM] | SMILES | Urine Volume (ml/4 hrs) [1] [ml/4 hrs] | IC50 [2] [nM]
 | Cc1ccc(F)cc1C(=O)Nc1ccc(C(=O)N2Cc3ccc(C(=O)[O-])n3Cc3ccccc32)c(Cl)c1.[K+] [Example 2, 10-[2-Chloro-4-(5-fluoro-2-methyl-benzoylamino)-benzoyl]-10,11-dihydro-5H-pyrrolo[2,1-c][1,4]benzodiazepine-3-carboxylic acid, potassium salt (1:1)] | 11.5 | 
15 | Cc1ccc(F)cc1C(=O)Nc1ccc(C(=O)N2Cc3ccc(C(=O)NN(C)C)n3Cc3ccccc32)c(Cl)c1 [Example 3, N-{3-Chloro-4-[3-(N', N'-dimethyl-hydrazinocarbonyl)-5H,11H-pyrrolo[2,1-c][1,4]benzodiazepine-10-carbonyl]-phenyl}-5-fluoro-2-methyl-benzamide] | 22 | 
 | Cc1ccc(F)cc1C(=O)Nc1ccc(C(=O)N2Cc3ccc(C(=O)N[N+](C)(C)C)n3Cc3ccccc32)c(Cl)c1 [Example 4, 2-[[10-[2-Chloro-4-[(5-fluoro-2-methylbenzoyl)amino]benzoyl]-10,11-dihdro-5H-pyrrolo{2,1-c][1,4]benzodiazepin-3-yl]carbonyl]-1,1,1-trimethylhydrazinium iodide] | 9.2 | 60
 | Cc1ccc(F)cc1C(=O)Nc1ccc(C(=O)N2Cc3ccc(C(=O)[N-][N+](C)(C)C)n3Cc3ccccc32)c(Cl)c1 [Example 5, 2-[[10-[2-Chloro-4-[(5-fluoro-2-methylbenzoyl)amino]benzoyl]-10,11-dihydro-5H-pyrrolo[2,1-c][1,4]benzodiazepin-3-yl]hydroxymethylene]-1,1,1-trimethylhydrazinium inner salt] | 9.1 | 60
 | O=C(Nc1ccc(C(=O)N2Cc3ccc(C(=O)C(Cl)(Cl)Cl)n3Cc3ccccc32)c(Cl)c1)c1ccccc1-c1ccccc1 [Example 6] |  | 5.6
 | O=C(Nc1ccc(C(=O)N2Cc3ccc(C(=O)O)n3Cc3ccccc32)c(Cl)c1)c1ccccc1-c1ccccc1 [Example 7, 10-{4-[(Bipheny-2-carbonyl)-amino]-2-chloro-benzoyl)-10,11-dihydro-5H-benzo[e]pyrrolo[1,2-a][1,4] diazepine-3-carboxylic acid] | 19.2 | 
 | CN(C)NC(=O)c1ccc2n1Cc1ccccc1N(C(=O)c1ccc(NC(=O)c3ccccc3-c3ccccc3)cc1Cl)C2 [Example 8] | 40.9 | 8.6
5.5 | CN(C)CCN(C)C(=O)c1ccc2n1Cc1ccccc1N(C(=O)c1ccc(NC(=O)c3ccccc3-c3ccccc3)cc1Cl)C2 [Example 10, 10-{4-[(Biphenyl-2-carbonyl)-amino]-2-chloro-benzoyl}-10,11-dihydro-5H-pyrrolo[2,1-c][1,4]benzodiazepine-3-carboxylic acid (2-dimethylamino-ethyl)-methyl-amide] | 22.2 | 
 | O=C(Nc1ccc(C(=O)N2Cc3ccc(C(=O)N4CCC(N5CCCCC5)CC4)n3Cc3ccccc32)c(Cl)c1)c1ccccc1-c1ccccc1 [Example 11, Biphenyl-2-carboxylic acid{3-chloro-4-[3-(4-piperidinyl-piperidine-1-carbonyl)-5H,11H-pyrrolo[2,1-c][1,4]benzodiazepine-10-carbonyl]-phenyl}-amide.] |  | 9.3
 | CN(C)C1CCN(C(=O)c2ccc3n2Cc2ccccc2N(C(=O)c2ccc(NC(=O)c4ccccc4-c4ccccc4)cc2Cl)C3)CC1 [Example 12, Biphenyl-2-carboxylic acid{3-chloro-4-[3-(4-dimethylamino-piperidine-1-carbonyl)-5H,11H-pyrrolo[2,1-c][1,4]benzodiazepine-10-carbonyl]-phenyl}-amide.] | 21.4 | 
 | CN1CCN(NC(=O)c2ccc3n2Cc2ccccc2N(C(=O)c2ccc(NC(=O)c4ccccc4-c4ccccc4)cc2Cl)C3)CC1 [Example 13, Biphenyl-2-carboxylic acid{3-chloro-4-[3-(4-methyl-piperazine-1 aminocarbonyl)-5H,11H-pyrrolo[2,1-c][1,4]benzodiazepine-10-carbonyl]-phenyl}-amide.] | 16.8 | 
 | CN(C)CCNC(=O)c1ccc2n1Cc1ccccc1N(C(=O)c1ccc(NC(=O)c3ccccc3-c3ccccc3)cc1Cl)C2 [Example 14, 10-{4-[(Biphenyl-2-carbonyl)-amino]-2-chloro-benzoyl}-10,11-dihydro-5H-pyrrolo[2,1-c][1,4]benzodiazepine-3-carboxylic acid (2-dimethylamino-ethyl) -amide] | 11.3 | 
 | O=C(Nc1ccc(C(=O)N2Cc3ccc(C(=O)N4CCC(N5CCOCC5)CC4)n3Cc3ccccc32)c(Cl)c1)c1ccccc1-c1ccccc1 [Example 15, Biphenyl-2-carboxylic acid{3-chloro-4-[3-(4-morpholino-piperidine-1-carbonyl)-5H,11H-pyrrolo[2,1-c][1,4]benzodiazepine-10-carbonyl]-phenyl}-amide.] |  | 10.7
 | COc1cc(NC(=O)c2ccccc2-c2ccccc2)ccc1C(=O)N1Cc2ccc(C(=O)N3CCN(C)CC3)n2Cc2ccccc21 [Example 16] | 24.3 | 
 | COc1cc(NC(=O)c2ccccc2-c2ccccc2)ccc1C(=O)N1Cc2ccc(C(=O)NN(C)C)n2Cc2ccccc21 [Example 17] | 9.4 | 
 | O=C(O)CNC(=O)c1ccc2n1Cc1ccccc1N(C(=O)c1ccc(NC(=O)c3ccccc3-c3ccccc3)cc1Cl)C2 [Example 18, 10-{4-[(Biphenyl-2-carbonyl)-amino]-2-chloro-benzoyl}-10,11-dihydro-5H-pyrrolo[2,1-c][1,4]benzodiazepine-3-carboxylic acid (glycyl)-amide] | 7.8 | 7.6

SMILES | IC50 [2, 3] [nM] | Urine Volume (ml/4 hrs) [1] [ml/4 hrs] | IC50 [2] [nM]
Cc1ccc(F)cc1C(=O)Nc1ccc(C(=O)N2Cc3ccc(C(=O)O)n3Cc3ccccc32)c(Cl)c1 [Example 1, 10-[2-Chloro-4-(5-fluoro-2-methyl-benzoylamino)-benzoyl]-10,11-dihydro-5H-pyrrolo[2,1-c][1,4]benzodiazepine-3-carboxylic acid] | 14 | 13.2 | 
